Like-named read-outs stand apart in the source and are kept apart here.
Assays:
[1] = target: T1, recombinantly expressed His-tagged protein corresponding to amino acids 575-869 of human Tyk2 (Homo sapiens, UniProt P29597); assay: Probe displacement assay (scintillation proximity, radiolabeled probe); assay type: binding
T1 construct: made in house
Method: The probe displacement assay is conducted as follows: In a […], test compounds along with recombinantly expressed His-tagged protein corresponding to amino acids 575-869 of human Tyk2 (sequence shown below) at 2.5 nM, 40 nM ((R)—N-(1-(3-(8-methyl-5-(methylamino)-8H-imidazo[4,5-d]thiazolo[5,4-b]pyridin-2-yl)phenyl)ethyl)-2-([^3H]methylsulfonyl)benzamide) (preparation described below) and 80 μg/mL Copper His-Tag scintillation proximity assay beads (Perkin Elmer, Catalog #RPNQ0095) in 50 mM HEPES, pH 7.5, containing 100 μg/mL bovine serum albumin and 5% DMSO were incubated for 30 minutes at room temperature. […] The IC50 value is defined as the concentration of test compound required to inhibit radiolabeled probe binding by 50%.
Protein Sequence of recombinant Hig-tagged Tyk2 (575-869):
The preparation of radiolabeled probe, (R)—N-(1-(3-(8-methyl-5-(methylamino)-8H-imidazo[4,5-d]thiazolo[5,4-b]pyridin-2-yl)phenyl)ethyl)-2-([^3H]methylsulfonyl)benzamide, was performed as described below: […]

[2] = system: IL-23-stimulated Kit225 T cells with STAT-dependent luciferase reporter; assay: Kit225 T cell assay, IL-23 stimulated STAT-dependent luciferase reporter; assay type: cell-based, human
Method: (§1) Kit225 T cells with a stably-integrated STAT-dependent luciferase reporter were plated in RPMI (GIBCO) containing 10% heat-inactivated FBS (GIBCO) and 100 U/mL PenStrep (GIBCO). The cells were then stimulated with either 20 ng/mL human recombinant IL-23 or 200 U/mL human recombinant IFNα (PBL InterferonSource) for 5-6 hours. Luciferase expression was measured using the STEADY-GLO® Luciferase Assay System (PROMEGA®) according to the manufacturer's instructions.

[3] = system: IFNα-stimulated Kit225 T cells with STAT-dependent luciferase reporter; assay: Kit225 T cell assay, IFNα stimulated STAT-dependent luciferase reporter; assay type: cell-based, human
Method: as §1

[4] = Homo sapiens, KIT225, read-out: IL-23 Kit225 Reporter, LE (IC50, uM)
[5] = Homo sapiens, KIT225, read-out: IFNa Kit225 Reporter, LE (IC50, uM)

T1 sequence (P29597 with tags, fused parts or gaps): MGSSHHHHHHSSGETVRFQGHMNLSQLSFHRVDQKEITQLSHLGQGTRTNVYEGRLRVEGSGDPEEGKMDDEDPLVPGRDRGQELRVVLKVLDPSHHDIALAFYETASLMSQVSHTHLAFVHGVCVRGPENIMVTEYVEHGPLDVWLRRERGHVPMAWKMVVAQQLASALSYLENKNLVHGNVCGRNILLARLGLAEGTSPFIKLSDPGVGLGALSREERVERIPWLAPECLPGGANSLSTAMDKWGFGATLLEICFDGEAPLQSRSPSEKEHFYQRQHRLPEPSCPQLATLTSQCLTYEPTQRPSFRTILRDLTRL

Structure (SMILES)	EC50 [1] [nM]	IC50 [2, 4] [µM]	IC50 [3, 5] [µM]	EC50 ([1]; 2.5 nM Tyk2 (575-869), 40 nM [3H] probe, 30 minutes at room temperature, read-out: Probe Displacement EC50) [nM]	IC50 ([2]; Kit225 T cells, 20 ng/mL human recombinant IL-23, 5-6 hours, luciferase, read-out: IL-23 Kit225 Reporter, LE (IC50)) [µM]	IC50 ([3]; Kit225 T cells, 200 U/mL human recombinant IFNα, 5-6 hours, luciferase, read-out: IFNa Kit225 Reporter, LE (IC50)) [µM]
CNC(=O)c1nscc1Nc1cc(NC)c2ncc(C(=O)NC3CC3)n2n1 [Example 59, 4-((3-(cyclopropylcarbamoyl)-8-(methylamino)imidazo[1,2-b]pyridazin-6-yl)amino)-N-methylisothiazole-3-carboxamide]	1.93	0.01	0.03	–	–	–
CNc1cc(Nc2csnc2C(=O)Nc2ccccc2)nn2c(C(=O)NC3CC3)cnc12 [Example 60]	2.69	0.211	0.0662	–	–	–
CCNC(=O)c1nscc1Nc1cc(NC)c2ncc(C(=O)NC3CC3)n2n1 [Example 62]	9.3	0.54	0.18	–	–	–
CNc1cc(Nc2csnc2C(=O)N[C@@H]2C[C@@H]2F)nn2c(C(=O)NC3CC3)cnc12 [Example 64]	1.99	0.08	0.06	–	–	–
CNc1cc(Nc2csnc2C(=O)Nc2ccc(F)cc2)nn2c(C(=O)NC3CC3)cnc12 [Example 66]	10	0.4	0.11	–	–	–
[2H]C([2H])([2H])NC(=O)c1nscc1Nc1cc(NC)c2ncc(C(=O)NC3CCC3)n2n1 [Example 67]	40	0.47	0.23	–	–	–
[2H]C([2H])([2H])NC(=O)c1nscc1Nc1cc(NC)c2ncc(C(=O)N[C@@H]3C[C@@H]3F)n2n1 [Example 68]	2.78	0.14	0.05	–	–	–
[2H]C([2H])([2H])NC(=O)c1nscc1Nc1cc(NC)c2ncc(C(=O)NCCOC)n2n1 [Example 69]	2.29	0.05	0.01	–	–	–
[2H]C([2H])([2H])NC(=O)c1nscc1Nc1cc(NC)c2ncc(C(=O)NCc3nccs3)n2n1 [Example 70]	20	0.42	0.11	–	–	–
CCNC(=O)c1nscc1Nc1cc(NC)c2ncc(C(=O)NC3CCC3)n2n1 [Example 71]	8.09	0.2	0.21	–	–	–
CCNC(=O)c1nscc1Nc1cc(NC)c2ncc(C(=O)NCCOC)n2n1 [Example 72]	5.78	0.14	0.07	–	–	–
CCNC(=O)c1nscc1Nc1cc(NC)c2ncc(C(=O)N[C@@H]3C[C@@H]3F)n2n1 [Example 73]	20	0.16	0.2	–	–	–
CCNC(=O)c1nscc1Nc1cc(NC)c2ncc(C(=O)NC(CO)CO)n2n1 [Example 74]	7.25	0.07	0.02	–	–	–
CCNC(=O)c1nscc1Nc1cc(NC)c2ncc(C(=O)NCc3nccs3)n2n1 [Example 75]	10	3.31	2.29	–	–	–
CNC(=O)c1ncsc1Nc1cc(NC)c2ncc(C(=O)NC3CC3)n2n1 [Example 77]	–	–	–	20	0.57	0.22
CNC(=O)c1ncsc1Nc1cc(NC)c2ncc(C(=O)NC3CC3)n2n1 [Example 78, 5-((3-(cyclopropylcarbamoyl)-8-(methylamino)imidazo[1,2-b]pyridazin-6-yl)amino)-N-methylthiazole-4-carboxamide]	10	0.12	0.26	–	–	–
CCNC(=O)c1ncsc1Nc1cc(NC)c2ncc(C(=O)NC3CC3)n2n1 [Example 79]	20	0.32	0.15	–	–	–
CCCNC(=O)c1ncsc1Nc1cc(NC)c2ncc(C(=O)NC3CC3)n2n1 [Example 80]	20	0.14	0.13	–	–	–
CNc1cc(Nc2scnc2C(=O)NC(C)C)nn2c(C(=O)NC3CC3)cnc12 [Example 81]	3.24	0.3	0.31	–	–	–
CNc1cc(Nc2scnc2C(=O)Nc2ccccc2)nn2c(C(=O)NC3CC3)cnc12 [Example 82]	3.95	0.19	0.35	–	–	–
CNc1cc(Nc2scnc2C(=O)Nc2cccnc2)nn2c(C(=O)NC3CC3)cnc12 [Example 83]	10	0.16	1.76	–	–	–
CNC(=O)c1nc(C)sc1Nc1cc(NC)c2ncc(C(=O)NC3CC3)n2n1 [Example 84, 5-((3-(cyclopropylcarbamoyl)-8-(methylamino)imidazo[1,2-b]pyridazin-6-yl)amino)-N,2-dimethylthiazole-4-carboxamide]	4.51	0.11	0.18	–	–	–
CNc1cc(Nc2sc(C)nc2C(=O)NC(C)C)nn2c(C(=O)NC3CC3)cnc12 [Example 85]	26.7	0.256	0.224	–	–	–
